In the NIST ThermoML archive (doi:10.1016/j.tca.2004.12.015):
Values joined by “and” are separate entries in the source; they are usually repeats but may differ in a detail not shown here. Equal entries are not always repeated. Numbers after ± are expanded uncertainties.

Assay: molar heat capacity at constant pressure
Conditions: 101.33 kPa, Vacuum adiabatic calorimetry

N#CCCNc1ccccc1 [3-anilinopropanenitrile]
Conditions	molar heat capacity at constant pressure
262.12 K, Crystal 2	156 ± 0.83 J/K/mol
263 K, Crystal 2	160 ± 0.83 J/K/mol
263.62 K, Crystal 2	158 ± 0.83 J/K/mol
265.1 K, Crystal 2	158 ± 0.83 J/K/mol
266.58 K, Crystal 2	160 ± 0.83 J/K/mol
268 K, Crystal 2	161 ± 0.83 J/K/mol
268.05 K, Crystal 2	160 ± 0.83 J/K/mol
269.52 K, Crystal 2	161 ± 0.83 J/K/mol
270.98 K, Crystal 2	161 ± 0.83 J/K/mol
272.44 K, Crystal 2	161 ± 0.83 J/K/mol
273 K, Crystal 2	162 ± 0.83 J/K/mol
273.9 K, Crystal 2	162 ± 0.83 J/K/mol
275.36 K, Crystal 2	163 ± 0.83 J/K/mol
276.81 K, Crystal 2	163 ± 0.83 J/K/mol
278 K, Crystal 2	162 ± 0.83 J/K/mol
278.26 K, Crystal 2	164 ± 0.83 J/K/mol
279.7 K, Crystal 2	164 ± 0.83 J/K/mol
281.13 K, Crystal 2	165 ± 0.83 J/K/mol
282.56 K, Crystal 2	165 ± 0.83 J/K/mol
283 K, Crystal 2	162 ± 0.83 J/K/mol
283.98 K, Crystal 2	165 ± 0.83 J/K/mol
285.41 K, Crystal 2	165 ± 0.83 J/K/mol
286.82 K, Crystal 2	165 ± 0.83 J/K/mol
288 K, Crystal 2	164 ± 0.83 J/K/mol
288.23 K, Crystal 2	165 ± 0.83 J/K/mol
289.63 K, Crystal 2	166 ± 0.83 J/K/mol
291.02 K, Crystal 2	166 ± 0.83 J/K/mol
292.39 K, Crystal 2	167 ± 0.83 J/K/mol
293 K, Crystal 2	168 ± 0.83 J/K/mol
293.74 K, Crystal 2	169 ± 0.83 J/K/mol
295.08 K, Crystal 2	170 ± 0.83 J/K/mol
296.42 K, Crystal 2	171 ± 0.83 J/K/mol
297.76 K, Crystal 2	174 ± 0.83 J/K/mol
298.15 K, Crystal 2	179 ± 0.83 J/K/mol
299.09 K, Crystal 2	177 ± 0.83 J/K/mol
300.41 K, Crystal 2	180 ± 0.83 J/K/mol
301.72 K, Crystal 2	185 ± 0.83 J/K/mol
303 K, Crystal 2	192 ± 0.83 J/K/mol and 196 ± 0.83 J/K/mol
304.27 K, Crystal 2	201 ± 0.83 J/K/mol
305 K, Crystal 2	206 ± 0.83 J/K/mol
305.5 K, Crystal 2	213 ± 0.83 J/K/mol
306.69 K, Crystal 2	231 ± 1.7 J/K/mol
307.82 K, Crystal 2	260 ± 1.7 J/K/mol
308.85 K, Crystal 2	301 ± 1.7 J/K/mol
309.78 K, Crystal 2	355 ± 2.5 J/K/mol
310.63 K, Crystal 2	390 ± 2.5 J/K/mol
311.5 K, Crystal 1	329 ± 1.7 J/K/mol
312.51 K, Crystal 1	280 ± 1.7 J/K/mol
313.55 K, Crystal 1	303 ± 1.7 J/K/mol
314.54 K, Crystal 1	330 ± 1.7 J/K/mol
315.48 K, Crystal 1	365 ± 2.5 J/K/mol
316.35 K, Crystal 1	410 ± 2.5 J/K/mol
317.16 K, Crystal 1	466 ± 3.3 J/K/mol
317.89 K, Crystal 1	538 ± 3.3 J/K/mol
318.55 K, Crystal 1	629 ± 4.2 J/K/mol
319.14 K, Crystal 1	738 ± 5.8 J/K/mol
319.66 K, Crystal 1	865 ± 8.3 J/K/mol
320.12 K, Crystal 1	1014 ± 8.3 J/K/mol
320.52 K, Crystal 1	1189 ± 8.3 J/K/mol
320.86 K, Crystal 1	1380 ± 17 J/K/mol
321.16 K, Crystal 1	1596 ± 17 J/K/mol
321.42 K, Crystal 1	1846 ± 25 J/K/mol
321.65 K, Crystal 1	2037 ± 25 J/K/mol
321.85 K, Crystal 1	2361 ± 33 J/K/mol
322.03 K, Crystal 1	2644 ± 33 J/K/mol
322.19 K, Crystal 1	2885 ± 33 J/K/mol
322.33 K, Crystal 1	3118 ± 42 J/K/mol
322.45 K, Crystal 1	3359 ± 58 J/K/mol
322.56 K, Crystal 1	3742 ± 75 J/K/mol
322.66 K, Crystal 1	4116 ± 75 J/K/mol
322.75 K, Crystal 1	4448 ± 66 J/K/mol
322.83 K, Crystal 1	4648 ± 83 J/K/mol
322.9 K, Crystal 1	5022 ± 91 J/K/mol
322.97 K, Crystal 1	5280 ± 83 J/K/mol
323.03 K, Crystal 1	5513 ± 66 J/K/mol
323.09 K, Crystal 1	5621 ± 91 J/K/mol
323.15 K, Crystal 1	6011 ± 140 J/K/mol
323.2 K, Crystal 1	6386 ± 130 J/K/mol
323.24 K, Crystal 1	6585 ± 58 J/K/mol
323.29 K, Crystal 1	6627 ± 42 J/K/mol
323.33 K, Crystal 1	6677 ± 42 J/K/mol
323.37 K, Liquid	6568 ± 160 J/K/mol
323.42 K, Liquid	6236 ± 150 J/K/mol
323.46 K, Liquid	5862 ± 120 J/K/mol
323.5 K, Liquid	5604 ± 140 J/K/mol
323.55 K, Liquid	5446 ± 130 J/K/mol
323.59 K, Liquid	5080 ± 150 J/K/mol
323.64 K, Liquid	4673 ± 180 J/K/mol
323.69 K, Liquid	4199 ± 170 J/K/mol
323.73 K, Liquid	3816 ± 220 J/K/mol
323.78 K, Liquid	3517 ± 220 J/K/mol
323.83 K, Liquid	2536 ± 210 J/K/mol
324 K, Liquid	1014 ± 180 J/K/mol
324.78 K, Liquid	242 ± 7.5 J/K/mol
325 K, Liquid	244 ± 1.7 J/K/mol
325.93 K, Liquid	245 ± 1.7 J/K/mol
327.07 K, Liquid	245 ± 1.7 J/K/mol
328.2 K, Liquid	246 ± 1.7 J/K/mol
329.34 K, Liquid	246 ± 1.7 J/K/mol
330 K, Liquid	247 ± 1.7 J/K/mol
330.46 K, Liquid	247 ± 1.7 J/K/mol
331.59 K, Liquid	247 ± 1.7 J/K/mol
332.72 K, Liquid	247 ± 1.7 J/K/mol
333.84 K, Liquid	247 ± 1.7 J/K/mol
334.96 K, Liquid	248 ± 1.7 J/K/mol
335 K, Liquid	249 ± 1.7 J/K/mol
336.08 K, Liquid	250 ± 1.7 J/K/mol
337.19 K, Liquid	251 ± 1.7 J/K/mol
338.3 K, Liquid	253 ± 1.7 J/K/mol
339.4 K, Liquid	254 ± 1.7 J/K/mol
340 K, Liquid	254 ± 1.7 J/K/mol
340.5 K, Liquid	255 ± 1.7 J/K/mol
342.69 K, Liquid	259 ± 1.7 J/K/mol
343.77 K, Liquid	262 ± 1.7 J/K/mol
344.84 K, Liquid	265 ± 1.7 J/K/mol
345 K, Liquid	266 ± 1.7 J/K/mol
345.9 K, Liquid	269 ± 1.7 J/K/mol
346.95 K, Liquid	273 ± 1.7 J/K/mol
348.01 K, Liquid	278 ± 1.7 J/K/mol
349.04 K, Liquid	284 ± 1.7 J/K/mol
350 K, Liquid	288 ± 1.7 J/K/mol
351.08 K, Liquid	294 ± 1.7 J/K/mol
352.08 K, Liquid	300 ± 1.7 J/K/mol
353 K, Liquid	308 ± 1.7 J/K/mol
353.07 K, Liquid	309 ± 1.7 J/K/mol
